The subject of assay [1] is human glioma cells (U87). The assay is described as follows: In-vitro growth inhibition, MTT method, U87. In kind it is cell-based. To be noted: Glioma cell, 48 h. On the procedure:
(§1) The in-vitro growth inhibitory activity of compounds 1 to 8 of the present disclosure against human glioma cells (U87 and LN229), human hepatoma cells (SMMC-7721) and human pancreatic carcinoma cells (Panc1) was studied adopting the MTT method.
U87, LN229, SMMC-7721 and Panc1 cells growing at log phase were separately inoculated into a 96-well plate at a density of 5×10^4 cells/mL, 180 μL/well. […] After 48 h of action, a 5 mg/mL MTT solution (20 μL/well) was added. After the cells were incubated in a CO2 incubator for 3 to 4 h, the supernatant was carefully discarded. After the residual liquid was air-dried, acidified isopropanol (50 μL of concentrated hydrochloric acid dissolved in 500 mL of isopropanol) was added at […], and the plate was shaken on a shaker for 30 min. After the crystals were completely dissolved, absorbance OD values were measured by a microplate reader at 570 nm.
(§2) Cell viability %=(drug-treated cell OD−blank group OD)/(control cell OD−blank group OD)×100
(§3) Cell killing rate %=1−cell viability %

Assay [2] relates to human glioma cells (LN229). The assay is described as follows: In-vitro growth inhibition, MTT method, LN229. In kind it is cell-based. To be noted: LN-229, 48 h. On the procedure: as §1
(§4) U87, LN229, SMMC-7721 and Panc1 cells growing at log phase were separately inoculated into a 96-well plate at a density of 5×10^4 cells/mL, 180 μL/well. After the cells were attached to the wall, 20 μL of a drug liquid was added to each well, so that the final concentrations of the drug were 0 μM, 5 μM, 10 μM, 20 μM and 50 μM. After 48 h of action, a 5 mg/mL MTT solution (20 μL/well) was added. After the cells were incubated in a CO2 incubator for 3 to 4 h, the supernatant was carefully discarded. After the residual liquid was air-dried, acidified isopropanol (50 μL of concentrated hydrochloric acid dissolved in 500 mL of isopropanol) was added at […], and the plate was shaken on a shaker for 30 min. After the crystals were completely dissolved, absorbance OD values were measured by a microplate reader at 570 nm.
as §2, §3

Assay [3] has as its system human hepatoma cells (SMMC-7721). The assay is described as follows: In-vitro growth inhibition, MTT method, SMMC-7721. In kind it is cell-based. To be noted: 48 h. On the procedure: as §1, §4, §2, §3
The subject of assay [4] is human pancreatic carcinoma cells (Panc1). The assay is described as follows: In-vitro growth inhibition, MTT method, Panc1. Particulars: PANC-1, 48 h. In kind it is cell-based. On the procedure:
as §1, §4, §2, §3

Assay [5] concerns human glioma cell U87. The assay is described as follows: Tumor volume inhibition rate, i.v. dosing. In kind it is in vivo, Balb/c nude mice. To be noted: Mus musculus, iv, TMZ 10 mg·kg^−1, i.v. On the procedure:
In addition, low-dosage 0409 (20 mg·kg^−1, i.v.) and TMZ (10 mg·kg^−1, i.v.) were synchronously used for an assay to determine the volume tumor inhibition rate.

In assay [6] the test system is human glioma cell U87. The assay is described as follows: Pharmacodynamic study in human glioma cell U87 subcutaneous model. In kind it is in vivo, Balb/c nude mice. Particulars: compounds 20 mg/Kg, q.d.×14 days. The source says:
The route of administration was intragastric administration ([…]., q.d.×14 days).

Assay [7] relates to U251MG human glioma cells. The assay is described as follows: In-vitro anti-cancer activity screening, SRB method, U251MG. Particulars: U-251. In kind it is cell-based. On the procedure:
(§5) Referring to the method of example 9, two tumor cell lines, U251MG and U251TR human glioma cells, were selected, and temozolomide and the compounds of the present disclosure were subjected to in-vitro anti-cancer activity screening using the SRB method.

In assay [8] the test system is U251TR human glioma cells. The assay is described as follows: In-vitro anti-cancer activity screening, SRB method, U251TR. In kind it is cell-based. To be noted: Glioma cell, drug-resistant strain. On the procedure:
as §5

In assay [9] the target is T1, thioredoxin reductase (TrxR) (Homo sapiens, UniProt Q16881).
T1 sequence (Q16881 1-649): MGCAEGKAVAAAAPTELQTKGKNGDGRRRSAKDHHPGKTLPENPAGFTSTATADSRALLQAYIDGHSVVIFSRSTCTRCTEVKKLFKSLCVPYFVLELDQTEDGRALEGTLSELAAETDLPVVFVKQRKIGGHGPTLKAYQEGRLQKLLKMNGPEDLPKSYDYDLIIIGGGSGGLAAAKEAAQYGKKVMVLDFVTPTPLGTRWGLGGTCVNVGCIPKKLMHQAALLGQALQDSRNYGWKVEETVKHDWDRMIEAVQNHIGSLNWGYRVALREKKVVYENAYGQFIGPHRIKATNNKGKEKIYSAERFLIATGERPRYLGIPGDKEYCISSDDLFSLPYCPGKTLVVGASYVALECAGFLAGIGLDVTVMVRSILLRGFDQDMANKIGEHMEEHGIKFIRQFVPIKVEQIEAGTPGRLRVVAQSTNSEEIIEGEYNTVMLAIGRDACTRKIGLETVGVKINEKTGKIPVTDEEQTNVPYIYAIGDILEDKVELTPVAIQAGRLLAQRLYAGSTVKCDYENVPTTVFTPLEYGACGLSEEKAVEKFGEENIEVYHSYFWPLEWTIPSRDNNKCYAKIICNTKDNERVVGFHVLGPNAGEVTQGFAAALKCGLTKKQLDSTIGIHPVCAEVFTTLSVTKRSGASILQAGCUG
To be noted: read-out: Inhibitory activity against thioredoxin reductase (IC50) TrxR; cellular total protein, NADPH, DTNB, 405 nm.
Description: The cellular total protein (i.e. thioredoxin reductase) was extracted and the concentration was determined. 30 μg of protein sample was added to a 96-well plate (3 replicate wells per concentration), and the volume was made up to 80 μL with 0.1 M sodium phosphate buffer. The protein samples were incubated in an oven at 37° C. for 30 min.
The absorbance was immediately measured at 405 nm using a microplate reader (FlexStation 3, Molecular Devices). Shaking was performed for 10 s before the first reading, and determination was performed once every 15 s, 30 times in total. The maximum reaction rate was taken as an enzymatic activity index. The experiment was independently repeated three times.

In assay [10] the test system is human glioma cell U87. The assay is described as follows: In-vivo antitumor activity, U87 tumor-bearing nude mice, i.g. dosing. Further details: species or system Balb/c nude mice. Particulars: q.d., end of the experiment; for Tumor volume: 11 days. The source says: The tumor emergence rate was 100%.
The solvent was freshly prepared when needed each day.

[11] abbreviates: 240 h, Day 10, 20 mg·kg^−1, i.v.
The mark [12] stands for this setting: 264 h, Day 11, 20 mg·kg^−1, i.v.
Setting [13] is: 288 h, Day 12, 20 mg·kg^−1, i.v.
[14] abbreviates: 312 h, Day 13, 20 mg·kg^−1, i.v.
[15] abbreviates: 336 h, Day 14, 20 mg·kg^−1, i.v.
Setting [16] is: 360 h, Day 15, 20 mg·kg^−1, i.v.
Where [17] appears, read: 384 h, Day 16, 20 mg·kg^−1, i.v.
[18] abbreviates: 408 h, Day 17, 20 mg·kg^−1, i.v.
The mark [19] stands for this setting: 432 h, Day 18, 20 mg·kg^−1, i.v.
[20] abbreviates: 0409 high-dose group 90 mg·kg^−1, i.g.
The mark [21] stands for this setting: 0409 low-dose group 45 mg·kg^−1, i.g.

We go through four compounds from patent publication US20230167120A1, “ARYL-FUSED ISOSELENAZOLE COMPOUND CONTAINING TETRAZINE SUBSTITUENT, SYNTHESIS METHOD THEREFOR, AND USE THEREOF” (KEAISE MEDICINE WUHAN CORP., priority 2020, published 2023).

`Cn1nnc2c(C(=O)NCCn3[se]c4cc(F)ccc4c3=O)ncn2c1=O` [Compound 3, 3,4-dihydro-3-methyl-4-oxo-N-(3(2H)-oxo-6-fluoro-1,2-benzisoselenazol-2-yl)-ethyl-imidazo[5,1-d]-1,2,3,5-tetrazine-8-carboxamide]: the IC50 in [1] is 20.4 ± 7.19 µM; in assay [2], 19 ± 1.3 µM; in assay [3], 25.4 ± 7.19 µM; in [4] it was 7 ± 8.3 µM; in assay [7], 15.4 ± 1.25 µM; in assay [8] it was 35.5 ± 4.97 µM. The inhibition in vivo at 20 mg/kg in assay [5] (setting [11]) was 57.9%; in assay [5] (setting [12]) it was 67.1%; in assay [5] (setting [13]), 68.4%; in assay [5] (setting [14]), 58.8%; in [5] (setting [15]), 72.3%; in assay [5] (setting [16]) it was 72.7%. Also, the inhibition in vivo at 20 mg/kg is 78.6% in assay [5] (setting [17]), 74.8% in [5] (setting [18]) and 73.8% in [5] (setting [19]). For the same compound, the Tumor inhibition rate in assay [6] (Day 1) is −9.91%; in assay [6] (Day 4), 47.90%; in assay [6] (Day 7), 87.76%; in assay [6] (Day 10), 91.47%; in [6] (Day 14 (end of the experiment)), 88.01%.

With `O=c1c2ccccc2[se]n1CCCCn1[se]c2ccccc2c1=O` [BS, Butaselen], the IC50 in assay [9] amounted to 1.14 ± 0.17 µM.

For `Cn1nnc2c(C(=O)NCCn3[se]c4ccccc4c3=O)ncn2c1=O` [Compound 1, 3,4-dihydro-3-methyl-4-oxo-N-(3(2H)-oxo-1,2-benzisoselenazol-2-yl)-ethyl-imidazo[5,1-d]-1,2,3,5-tetrazine-8-carboxamide], the IC50 in [1] worked out at 21 ± 3.07 µM; in [2], 14.4 ± 2.24 µM; in assay [3] it was 12 ± 1.57 µM; in assay [4] it was 17.8 ± 3.44 µM; in assay [7], 48.9 ± 9.33 µM; in assay [8], 51.9 ± 21.9 µM. Moreover, the Tumor volume stood at 90.00±32.64 mm^3 in assay [10] (setting [20]) and 96.70±24.08 mm^3 in assay [10] (setting [21]). In addition, the entries for the “Tumor proliferation inhibition rate” value in assay [10] (setting [20]) and in [10] (setting [21]) were 83.97% and 82.78%, respectively. For the same compound, the figures for the Tumor weight in assay [10] (setting [20]) and in assay [10] (setting [21]) were 0.12 ± 0.04 g and 0.20 ± 0.10 g, respectively. The inhibition in vivo at 20 mg/kg was found to be 74.8% in assay [5] (setting [11]); 73.8% in [5] (setting [12]); 69.8% in assay [5] (setting [13]); 79.8% in [5] (setting [14]); 81.4% in assay [5] (setting [15]); 80.5% in assay [5] (setting [16]). Besides, the inhibition in vivo at 20 mg/kg in assay [5] (setting [17]) amounted to 78.5%; in assay [5] (setting [18]), 82.3%; in [5] (setting [19]), 81.7%. Besides, the Tumor inhibition rate in assay [6] (Day 1) worked out at 5.86%; in assay [6] (Day 4) it was 58.78%; in [6] (Day 7), 78.57%; in [6] (Day 10) it was 74.77%; in assay [6] (Day 14 (end of the experiment)), 81.42%.

Regarding `Cc1ccc2c(=O)n(CCNC(=O)c3ncn4c(=O)n(C)nnc34)[se]c2c1` [Compound 8, 3,4-dihydro-3-methyl-4-oxo-N-(3(2H)-oxo-6-methyl-1,2-benzisoselenazol-2-yl)-ethyl-imidazo[5,1-d]-1,2,3,5-tetrazine-8-carboxamide], the IC50 in assay [1] came out at 20.4 ± 3.13 µM; in assay [2], 13.7 ± 2.52 µM; in [3], 3.35 ± 2.13 µM; in assay [4] it was 8.65 ± 3.52 µM; in assay [7] it was 9.13 ± 1.52 µM; in assay [8], 16.2 ± 1.67 µM. Besides, the inhibition in vivo at 20 mg/kg in assay [5] (setting [11]) was 86.5%; in assay [5] (setting [12]), 86.2%; in [5] (setting [13]) it was 87.2%; in assay [5] (setting [14]), 88.2%; in assay [5] (setting [15]) it was 92.5%; in assay [5] (setting [16]), 87.7%. For the same compound, the inhibition in vivo at 20 mg/kg in [5] (setting [17]) was determined as 87%; in [5] (setting [18]), 88.5%; in assay [5] (setting [19]), 89.1%. Moreover, the Tumor inhibition rate is −0.20% in assay [6] (Day 1); 58.48% in assay [6] (Day 4); 83.03% in [6] (Day 7); 80.92% in [6] (Day 10); 82.68% in assay [6] (Day 14 (end of the experiment)).
